The record followed here is PubChem BioAssay AID248 (DTP/NCI, 2004).

Inconclusive results and toxic doses are left out.

For this test, the system named is L1210 leukemia ip in BDF1 mice, survival T/C. Briefly: NCI In Vivo Anticancer Drug Screen. Data for tumor model L1210 Leukemia (intraperitoneal) in B6D2F1 (BDF1) mice. To be noted: endpoint: mean survival time, higher = longer survival. Put shortly: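 Transplantable tumor model; survival measured in treated vs vehicle control mice. Value = treated/control.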
Setting [1] is: dose: 12.5 mg/kg/injection, schedule: Q01DX009 (ip), vehicle: saline.
Setting [2] is: dose: 12.5 mg/kg/injection, schedule: Q04DX003 (ip), vehicle: saline.
Setting [3] is: dose: 50.0 mg/kg/injection, schedule: Q04DX003 (ip), vehicle: saline.
Where [4] appears, read: dose: 100.0 mg/kg/injection, schedule: Q01DX009 (ip), vehicle: Klucel (hydroxypropylcellulose) (HPC).
The mark [5] stands for this setting: dose: 100.0 mg/kg/injection, schedule: Q04DX003 (ip), vehicle: saline with Tween-80.
Setting [6] is: dose: 200.0 mg/kg/injection, schedule: Q01DX009 (ip), vehicle: Klucel (hydroxypropylcellulose) (HPC).
Setting [7] is: dose: 200.0 mg/kg/injection, schedule: Q04DX003 (ip), vehicle: saline with Tween-80.
Where [8] appears, read: dose: 400.0 mg/kg/injection, schedule: Q01DX009 (ip), vehicle: Klucel (hydroxypropylcellulose) (HPC).
The mark [9] stands for this setting: dose: 400.0 mg/kg/injection, schedule: Q04DX003 (ip), vehicle: saline with Tween-80.
The mark [10] stands for this setting: dose: 100.0 mg/kg/injection, schedule: Q01DX001 (ip), vehicle: saline.
[11] abbreviates: dose: 200.0 mg/kg/injection, schedule: Q01DX001 (ip), vehicle: saline.
[12] abbreviates: dose: 400.0 mg/kg/injection, schedule: Q01DX001 (ip), vehicle: saline.
Setting [13] is: dose: 100.0 mg/kg/injection, schedule: Q01DX001 (ip), vehicle: Klucel (hydroxypropylcellulose) (HPC).
[14] abbreviates: dose: 200.0 mg/kg/injection, schedule: Q01DX001 (ip), vehicle: Klucel (hydroxypropylcellulose) (HPC).
[15] abbreviates: dose: 25.0 mg/kg/injection, schedule: Q04DX003 (ip), vehicle: saline.

On to `COc1cccc2c1C(=O)c1c(O)c3c(c(O)c1C2=O)C[C@@](O)(/C(C)=N\NC(N)=O)C[C@@H]3OC1CC(N)C(O)C(C)O1` (some centres undefined), for which the T/C reads like this: (dose: 1.5 mg/kg/injection, schedule: Q01DX009 (ip), vehicle: saline) 107 % of control; (dose: 2.0 mg/kg/injection, schedule: Q04DX003 (ip), vehicle: water) 110 % of control; (dose: 3.0 mg/kg/injection, schedule: Q01DX009 (ip), vehicle: saline) 112 % of control; (dose: 3.12 mg/kg/injection, schedule: Q01DX009 (ip), vehicle: saline) 113 % of control; (dose: 4.0 mg/kg/injection, schedule: Q04DX003 (ip), vehicle: water) 120 % of control; (dose: 6.0 mg/kg/injection, schedule: Q01DX009 (ip), vehicle: saline) 117 % of control. The T/C (dose: 6.25 mg/kg/injection, schedule: Q01DX009 (ip), vehicle: saline) was 150 % of control; the T/C (dose: 8.0 mg/kg/injection, schedule: Q04DX003 (ip), vehicle: saline) was 111 % of control; the T/C under setting [1] is 155 % of control; the T/C under setting [2] was 124 % of control; the T/C (dose: 24.0 mg/kg/injection, schedule: Q01DX009 (ip), vehicle: saline) is 124 % of control; the T/C under setting [3] is 157 % of control. For the same compound, the T/C (dose: 125.0 micrograms/kg/injection, schedule: Q04DX003 (ip), vehicle: water) is 105 % of control; the T/C (dose: 250.0 micrograms/kg/injection, schedule: Q04DX003 (ip), vehicle: water) was 107 % of control; the T/C (dose: 500.0 micrograms/kg/injection, schedule: Q04DX003 (ip), vehicle: water) was 108 % of control; the T/C (dose: 1000.0 micrograms/kg/injection, schedule: Q04DX003 (ip), vehicle: water) was 107 % of control; the T/C (dose: 2000.0 micrograms/kg/injection, schedule: Q04DX003 (ip), vehicle: water) was 110 % of control.
For `c1ccc(C2OC2(c2ccccc2)c2ccccc2)cc1` (centres undefined), the T/C under setting [4] was 95 % of control; the T/C under setting [5] is 101 % of control; the T/C under setting [6] is 102 % of control; the T/C under setting [7] was 92 % of control; the T/C under setting [8] is 102 % of control; the T/C under setting [9] is 95 % of control.
Consider `CC(=O)Nc1ccc(NS(=O)(=O)O)cc1`, for which the T/C (dose: 50.0 mg/kg/injection, schedule: Q01DX001 (ip), vehicle: saline) is 96 % of control; the T/C under setting [10] is 96 % of control; the T/C under setting [11] is 93 % of control; the T/C under setting [12] is 96 % of control.
For `COc1cc(/C(C)=N/N=C(\C)c2ccc(O)c(OC)c2)ccc1O`, the T/C was 94 % of control (dose: 100.0 mg/kg/injection, schedule: Q01DX009 (ip), vehicle: saline); 90 % of control (dose: 200.0 mg/kg/injection, schedule: Q01DX009 (ip), vehicle: saline); 90 % of control (dose: 400.0 mg/kg/injection, schedule: Q01DX009 (ip), vehicle: saline).
With `O=C(COc1ccc(Cl)c(Cl)c1)NCCc1cc[n+](Cc2ccc(Cl)c(S(=O)(=O)F)c2)cc1`, the T/C was 96 % of control under setting [13] and 94 % of control under setting [14].
For `Cc1cc(C)c(C)c(NC(=O)NCCCl)c1C`, in that order: 92 % of control and 88 % of control.
With `O=C(NC1CCC(CC2CCCCC2)CC1)c1ccccc1` (centres undefined), the T/C by setting is: under setting [5], 92 % of control; under setting [7], 97 % of control; under setting [9], 113 % of control.
For `CC[N+](CC)(CC)CCCCC[N+](CC)(CC)CC`, the T/C by setting is: (dose: 12.5 mg/kg/injection, schedule: Q01DX009 (ip), vehicle: water) 106 % of control; (dose: 25.0 mg/kg/injection, schedule: Q01DX009 (ip), vehicle: water) 101 % of control; (dose: 25.0 mg/kg/injection, schedule: Q04DX003 (ip), vehicle: saline with Tween-80) 94 % of control; (dose: 50.0 mg/kg/injection, schedule: Q04DX003 (ip), vehicle: saline with Tween-80) 94 % of control.
With `NC(=O)C(CCO)n1ccc(N)nc1=O` (centres undefined), the T/C reads like this: under setting [10], 94 % of control; under setting [11], 98 % of control; under setting [12], 102 % of control.
Turning to `O=CC(O)C(Cl)C(Cl)C(O)CCl` (centres undefined), the T/C is, setting by setting: (dose: 100.0 mg/kg/injection, schedule: Q04DX002 (ip), vehicle: saline with Tween-80) 98 % of control; (dose: 200.0 mg/kg/injection, schedule: Q04DX002 (ip), vehicle: saline with Tween-80) 98 % of control; (dose: 400.0 mg/kg/injection, schedule: Q04DX002 (ip), vehicle: saline with Tween-80) 102 % of control.
As to `COc1cc2c3c(c1)C(O)CC[N+]3(C)CCC2` (centres undefined), the T/C under setting [1] is 90 % of control; the T/C under setting [2] was 114 % of control; the T/C (dose: 25.0 mg/kg/injection, schedule: Q01DX009 (ip), vehicle: saline) was 95 % of control; the T/C under setting [15] was 98 % of control; the T/C (dose: 50.0 mg/kg/injection, schedule: Q01DX009 (ip), vehicle: saline) was 92 % of control; the T/C under setting [3] is 112 % of control.
On to `COc1ccc(C(=O)Nc2ccc(C3=NCCN3)cc2)cc1C(=O)Nc1ccc(C2=NCCN2)cc1`, for which the T/C was 101 % of control (dose: 3.75 mg/kg/injection, schedule: Q01DX Z (ip), vehicle: saline); 116 % of control (dose: 7.5 mg/kg/injection, schedule: Q01DX Z (ip), vehicle: saline); 181 % of control (dose: 30.0 mg/kg/injection, schedule: Q01DX Z (ip), vehicle: saline); 266 % of control (dose: 60.0 mg/kg/injection, schedule: Q01DX Z (ip), vehicle: saline); 110 % of control (dose: 120.0 mg/kg/injection, schedule: Q01DX Z (ip), vehicle: saline).
Consider `CC1(C)N=C(N)N=C(N)N1c1ccc(/C=C/C(=O)Nc2ccc(S(=O)(=O)F)cc2)cc1`, for which the T/C runs as follows: (dose: 75.0 mg/kg/injection, schedule: Q01DX001 (ip), vehicle: Klucel (hydroxypropylcellulose) (HPC)) 97 % of control; (dose: 150.0 mg/kg/injection, schedule: Q01DX001 (ip), vehicle: Klucel (hydroxypropylcellulose) (HPC)) 92 % of control.
For `CC(C)(O)c1cnc(OCc2ccccc2)nc1OCc1ccccc1`, the T/C was 98 % of control under setting [4]; 101 % of control (dose: 100.0 mg/kg/injection, schedule: Q04DX003 (ip), vehicle: other); 100 % of control under setting [6]; 106 % of control (dose: 200.0 mg/kg/injection, schedule: Q04DX003 (ip), vehicle: other); 103 % of control under setting [8]; 101 % of control (dose: 400.0 mg/kg/injection, schedule: Q04DX003 (ip), vehicle: other).
Turning to `O=C(C[N+]12CC=C(CO)C1C(O)CC2)c1ccc(Br)cc1` (centres undefined), the T/C reads like this: under setting [10], 104 % of control; under setting [11], 101 % of control.
Regarding `CCOC(=O)N/N=C/c1ccc(O)cc1`, the T/C runs as follows: (dose: 100.0 mg/kg/injection, schedule: Q04DX002 (ip), vehicle: Klucel (hydroxypropylcellulose) (HPC)) 91 % of control; (dose: 200.0 mg/kg/injection, schedule: Q04DX002 (ip), vehicle: Klucel (hydroxypropylcellulose) (HPC)) 102 % of control; (dose: 400.0 mg/kg/injection, schedule: Q04DX002 (ip), vehicle: Klucel (hydroxypropylcellulose) (HPC)) 91 % of control.
For `CCOC(=O)CC1CCN(C(=O)c2ccccc2)C(Cc2c[nH]c3ccccc23)C1=O` (centres undefined), the T/C under setting [10] is 95 % of control, the T/C under setting [11] was 94 % of control and the T/C under setting [12] was 94 % of control.
For `CC1(C)NC(=O)N(CCOS(C)(=O)=O)C1=O`, the T/C runs as follows: under setting [15], 101 % of control; under setting [3], 98 % of control; (dose: 100.0 mg/kg/injection, schedule: Q04DX003 (ip), vehicle: saline) 104 % of control; (dose: 200.0 mg/kg/injection, schedule: Q04DX003 (ip), vehicle: saline) 104 % of control; (dose: 400.0 mg/kg/injection, schedule: Q04DX003 (ip), vehicle: saline) 93 % of control.
